Measured values: patent US20240239799A1, “(S)-1-(5-((PYRIDIN-3-YL)THIO)PYRAZIN-2-YL)-4'H,6'H-SPIRO[PIPERIDINE-4,5'-PYRROLO [1,2-B]PYRAZOL]-4'-AMINE DERIVATIVES AND SIMILAR COMPOUNDS AS SHP2 INHIBITORS FOR THE TREATMENT OF E.G. CANCER” (C.N.C.C.S. S.C.A.R.L. COLLEZIONE NAZIONALE DEI COMPOSTI …, priority 2021, published 2024)

Legend:
[1] = target: T1, SHP-2 enzyme (Met1-Leu525) (Homo sapiens, UniProt Q06124); assay: SHP2 inhibition enzymatic assay (DiFMUP substrate, IRS1 peptide activation); format: biochemical; details: 0.5 nM SHP-2, 500 nM IRS1 peptide, 75 μM DiFMUP; read-out: SHP2wt - IC50
T1 construct: synthetized by Origene, Met1-Leu525, cat #TP750155; purchased Origene TP750155
T1 sequence (Q06124 1-525): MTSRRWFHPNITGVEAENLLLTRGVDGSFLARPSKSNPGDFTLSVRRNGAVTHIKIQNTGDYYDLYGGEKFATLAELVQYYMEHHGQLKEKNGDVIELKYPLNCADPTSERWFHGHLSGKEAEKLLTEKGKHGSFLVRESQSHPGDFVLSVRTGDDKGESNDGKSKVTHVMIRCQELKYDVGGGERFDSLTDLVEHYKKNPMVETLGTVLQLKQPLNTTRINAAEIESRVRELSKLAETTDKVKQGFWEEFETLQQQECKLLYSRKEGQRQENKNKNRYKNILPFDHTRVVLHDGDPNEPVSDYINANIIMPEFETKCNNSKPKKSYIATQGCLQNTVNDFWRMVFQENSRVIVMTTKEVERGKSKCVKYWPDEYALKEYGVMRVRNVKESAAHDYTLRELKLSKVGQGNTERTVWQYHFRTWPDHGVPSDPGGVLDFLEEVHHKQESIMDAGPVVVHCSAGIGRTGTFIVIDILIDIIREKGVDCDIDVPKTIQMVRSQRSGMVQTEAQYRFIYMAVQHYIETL
Description: Assay volume of 20 μL/well was assembled in 384 well black polystyrene low-binding microplates (Greiner), using the following buffer: 60 mM HEPES pH 7.2, 75 mM NaCl, 75 mM KCl, 1 mM EDTA pH 8, 0.05% tween-20, 5 mM DTT. The SHP-2 enzyme (synthetized by Origene, Met1-Leu525, cat #TP750155) was used at a final concentration of 0.5 nM.
Briefly, DMSO serially diluted testing compounds were transferred to the bottom of the assay plate. SHP2 was then added together with the IRS1 peptide 30 min post incubation, the DiFMUP substrate was added to the reaction and incubated 30 min at rt. […] The fluorescence was detected by a microplate reader (Envision, PerkinElmer) according to the DiFMUP excitation and emission wavelength. The lower the fluorescence the higher the SHP2 inhibition.
The percentage inhibition is fitted against the compound dilutions with a four-parameter logistic regression. The inflection point (i.e. the concentration at which half-maximal inhibition is achieved) is the IC50.

[2] = system: phospho-ERK1/2 (Thr202/Tyr204) in KYSE-520 cells; assay: Phospho-ERK cellular assay (TR-FRET); format: cell-based; details: Homo sapiens, KYSE-520, 2 h, KYSE-520 cells, 2 h at 37° C.; read-out: pERK IC50
Description: ERK phosphorylation was detected using the “Advanced phospho-ERK1/2 (Thr202/Tyr204)” TR-FRET kit (Cisbio, Cat #64AERPEG/H), following the manufacturer reagents and instructions.
Briefly, 20.000/well KYSE-520 cells (DSMZ ACC 371) were plated in 6 μL RPMI-1640 (Invitrogen) growth medium, into 384 white low-volume high base TC microplates (Greiner). After an overnight incubation, cells were treated with DMSO serial diluted compounds and incubated for 2 h at 37° C. After incubation, 2 μL/well of 4X Lysis Buffer (Cisbio 64KL1FDF), were added and incubated with cells for 30 min on gentle shaking. Finally, lysates were added with 2 μL/well of Eu cryptate (donor) and D2 (acceptor) conjugated antibodies (as provided by the Cisbio kit #64AERPEG/H) diluted 1:100 in Detection Buffer (as provided by the Cisbio kit #64AERPEG/H). Plates were then sealed and incubated at rt in the dark. After an overnight incubation, the TR-FRET signal was detected on a suitable reader (Envision, PerkinElmer). The lower the TR-FRET signal the higher the higher the SHP2 inhibition in cells.
The activity of each compound dilution was calculated as percentage between vehicle DMSO treated cells and no cells, 0% inhibition and 100% inhibition respectively. The percentage activity is fitted against the compound dilutions with a four-parameter logistic regression. The inflection point (i.e. the concentration at which half-maximal inhibition is achieved) is the IC50.

| IC50 [1] | IC50 [2] | Structure (SMILES) |
| --- | --- | --- |
| > 0.3 µM | > 0.5 µM | Nc1nccc(Sc2ncc(N3CCC4(CC3)Cn3nccc3[C@H]4N)n3cncc23)c1Cl [Example 30, (S)-1-(8-((2-amino-3-chloropyridin-4-yl)thio)imidazo[1,5-a]pyrazin-5-yl)-4′H,6′H-spiro[piperidine-4,5′-pyrrolo[1,2-b]pyrazol]-4′-amine] |
| ≤ 0.05 µM | < 0.1 µM | Cc1cc(C)n(-c2nccc(Sc3cnc(N4CCC5(CC4)Cn4nccc4[C@H]5N)cn3)c2Cl)n1 [Example 34, (S)-1-(5-((3-chloro-2-(3,5-dimethyl-1H-pyrazol-1-yl)pyridin-4-yl)thio)pyrazin-2-yl)-4′H,6′H-spiro[piperidine-4,5′-pyrrolo[1,2-b]pyrazol]-4′-amine] |
| ≤ 0.05 µM | > 0.5 µM | Nc1nc(N2CCC3(CC2)Cn2nncc2[C@H]3N)cnc1Sc1cccnc1C(F)(F)F [Example 36, (S)-1-(6-amino-5-((2-(trifluoromethyl)pyridin-3-yl)thio)pyrazin-2-yl)-4′H,6′H-spiro[piperidine-4,5′-pyrrolo[1,2-c][1,2,3]triazol]-4′-amine] |
| ≤ 0.05 µM | < 0.1 µM | Nc1nccc(-c2n[nH]c3nc(N4CCC5(CC4)Cn4nccc4[C@H]5N)cnc23)c1Cl [Example 40, (S)-1-(3-(2-amino-3-chloropyridin-4-yl)-1H-pyrazolo[3,4-b]pyrazin-6-yl)-4′H,6′H-spiro[piperidine-4,5′-pyrrolo[1,2-b]pyrazol]-4′-amine] |
| ≤ 0.05 µM | 0.1 to 0.5 µM | N[C@@H]1c2ccnn2CC12CCN(c1cnc(Sc3ccn4cnnc4c3Cl)cn1)CC2 [Example 51, (S)-1-(5-((8-chloro-[1,2,4]triazolo[4,3-a]pyridin-7-yl)thio)pyrazin-2-yl)-4′H,6′H-spiro[piperidine-4,5′-pyrrolo[1,2-b]pyrazol]-4′-amine] |
| ≤ 0.05 µM | < 0.1 µM | N[C@@H]1c2ccnn2CC12CCN(c1cnc(Sc3ccn4c([N+](=O)[O-])cnc4c3Cl)cn1)CC2 [Example 52, (S)-1-(5-((8-chloro-3-nitroimidazo[1,2-a]pyridin-7-yl)thio)pyrazin-2-yl)-4′H,6′H-spiro[piperidine-4,5′-pyrrolo[1,2-b]pyrazol]-4′-amine] |
| ≤ 0.05 µM | < 0.1 µM | Nc1ccc(Sc2cnc(N3CCC4(CC3)Cn3nccc3[C@H]4N)cn2)c(Cl)n1 [Example 55, (S)-1-(5-((6-amino-2-chloropyridin-3-yl)thio)pyrazin-2-yl)-4′H,6′H-spiro[piperidine-4,5′-pyrrolo[1,2-b]pyrazol]-4′-amine] |
| ≤ 0.05 µM | < 0.1 µM | N[C@@H]1c2ccnn2CC12CCN(c1cnc(Sc3ccc4nccn4c3Cl)cn1)CC2 [Example 56, (S)-1-(5-((5-chloroimidazo[1,2-a]pyridin-6-yl)thio)pyrazin-2-yl)-4′H,6′H-spiro[piperidine-4,5′-pyrrolo[1,2-b]pyrazol]-4′-amine] |

Further lines, the compound ahead of its results:

| Structure (SMILES) | IC50 [1] | IC50 [2] |
| --- | --- | --- |
| Nc1nccc(Sc2cnc(N3CCC4(CC3)Cn3nc(CO)c(CO)c3[C@H]4N)c3cncn23)c1Cl [Example 28, (S)-(4′-amino-1-(5-((2-amino-3-chloropyridin-4-yl)thio)imidazo[1,5-a]pyrazin-8-yl)-4′H,6′H-spiro[piperidine-4,5′-pyrrolo[1,2-b]pyrazole]-2′,3′-diyl)dimethanol] | 0.05 to 0.3 µM | < 0.1 µM |
| N[C@@H]1c2ccnn2CC12CCN(c1ncc(Sc3ccn4ccnc4c3Cl)n3cncc13)CC2 [Example 32, (S)-1-(5-((8-chloroimidazo[1,2-a]pyridin-7-yl)thio)imidazo[1,5-a]pyrazin-8-yl)-4′H,6′H-spiro[piperidine-4,5′-pyrrolo[1,2-b]pyrazol]-4′-amine] | ≤ 0.05 µM | 0.1 to 0.5 µM |
| Nc1nccc(Sc2ccc(N3CCC4(CC3)Cn3nccc3[C@H]4N)nn2)c1Cl [Example 35, (S)-1-(6-((2-amino-3-chloropyridin-4-yl)thio)pyridazin-3-yl)-4′H,6′H-spiro[piperidine-4,5′-pyrrolo[1,2-b]pyrazol]-4′-amine] | ≤ 0.05 µM | 0.1 to 0.5 µM |
| Nc1nc(N2CCC3(CC2)Cn2nncc2[C@H]3N)cnc1Sc1ccnc(N)c1Cl [Example 37, (S)-1-(6-amino-5-((2-amino-3-chloropyridin-4-yl)thio)pyrazin-2-yl)-4′H,6′H-spiro[piperidine-4,5′-pyrrolo[1,2-c][1,2,3]triazol]-4′-amine] | ≤ 0.05 µM | 0.1 to 0.5 µM |
| Nc1nccc(Sc2cnc(N3CCC4(CC3)Cn3nncc3[C@H]4N)n3ccnc23)c1Cl [Example 39, (S)-1-(8-((2-amino-3-chloropyridin-4-yl)thio)imidazo[1,2-c]pyrimidin-5-yl)-4′H,6′H-spiro[piperidine-4,5′-pyrrolo[1,2-c][1,2,3]triazol]-4′-amine] | ≤ 0.05 µM | 0.1 to 0.5 µM |
| N[C@@H]1c2cnnn2CC12CCN(c1cnc3c(-c4cccc(Cl)c4Cl)n[nH]c3n1)CC2 [Example 41, (S)-1-(3-(2,3-dichlorophenyl)-1H-pyrazolo[3,4-b]pyrazin-6-yl)-4′H,6′H-spiro[piperidine-4,5′-pyrrolo[1,2-c][1,2,3]triazol]-4′-amine] | ≤ 0.05 µM | > 0.5 µM |
| Nc1nccc(Sc2cnc(N3CCC4(CC3)Cn3cnnc3[C@H]4N)cn2)c1Cl [Example 42, (S)-1-(5-((2-amino-3-chloropyridin-4-yl)thio)pyrazin-2-yl)-5′H,7′H-spiro[piperidine-4,6′-pyrrolo[2,1-c][1,2,4]triazol]-7′-amine] | 0.05 to 0.3 µM | > 0.5 µM |
| Cc1nc(N2CCC3(CC2)Cn2nccc2[C@H]3N)c(CO)nc1Sc1ccnc(N)c1Cl [Example 45, (S)-(6-((2-amino-3-chloropyridin-4-yl)thio)-3-(4′-amino-4′H,6′H-spiro[piperidine-4,5′-pyrrolo[1,2-b]pyrazol]-1-yl)-5-methylpyrazin-2-yl)methanol] | ≤ 0.05 µM | < 0.1 µM |
| Cn1c(N2CCC3(CC2)Cn2nccc2[C@H]3N)nc2[nH]nc(-c3ccnc(N)c3Cl)c2c1=O [Example 46, (S)-3-(2-amino-3-chloropyridin-4-yl)-6-(4′-amino-4′H,6′H-spiro[piperidine-4,5′-pyrrolo[1,2-b]pyrazol]-1-yl)-5-methyl-1,5-dihydro-4H-pyrazolo[3,4-d]pyrimidin-4-one] | ≤ 0.05 µM | < 0.1 µM |
| Nc1cnc(Sc2cnc(N3CCC4(CC3)Cn3nccc3[C@H]4N)cn2)c(Cl)n1 [Example 47, (S)-1-(5-((5-amino-3-chloropyrazin-2-yl)thio)pyrazin-2-yl)-4′H,6′H-spiro[piperidine-4,5′-pyrrolo[1,2-b]pyrazol]-4′-amine] | ≤ 0.05 µM | < 0.1 µM |
| N[C@@H]1c2ccnn2CC12CCN(c1cnc(Sc3ccn4c(Cl)cnc4c3Cl)cn1)CC2 [Example 48, (S)-1-(5-((3,8-dichloroimidazo[1,2-a]pyridin-7-yl)thio)pyrazin-2-yl)-4′H,6′H-spiro[piperidine-4,5′-pyrrolo[1,2-b]pyrazol]-4′-amine] | ≤ 0.05 µM | < 0.1 µM |
| N[C@@H]1c2c(F)cnn2CC12CCN(c1cnc(Sc3ccn4c(Cl)cnc4c3Cl)cn1)CC2 [Example 50, (S)-1-(5-((3,8-dichloroimidazo[1,2-a]pyridin-7-yl)thio)pyrazin-2-yl)-3′-fluoro-4′H,6′H-spiro[piperidine-4,5′-pyrrolo[1,2-b]pyrazol]-4′-amine] | ≤ 0.05 µM | < 0.1 µM |
